Measurements from patent US20230321083A1, “Inhibitors of GPR174 and Uses Thereof” (Omeros Corporation, priority 2016, published 2023).
“And” between values parts separate entries of the source, which are not always exact repeats. Equal values may be shown once.

Columns and labels:
Format in all cases: cell-based
ADBR2 = target: T1, ADBR2 (Homo sapiens, UniProt P07550); assay: CRE-Luc reporter Gs signaling assay, control receptor ADBR2
T1 construct: host or cells: HEK293 or CHO cell lines (ATCC)
T1 sequence (P07550 whole entry): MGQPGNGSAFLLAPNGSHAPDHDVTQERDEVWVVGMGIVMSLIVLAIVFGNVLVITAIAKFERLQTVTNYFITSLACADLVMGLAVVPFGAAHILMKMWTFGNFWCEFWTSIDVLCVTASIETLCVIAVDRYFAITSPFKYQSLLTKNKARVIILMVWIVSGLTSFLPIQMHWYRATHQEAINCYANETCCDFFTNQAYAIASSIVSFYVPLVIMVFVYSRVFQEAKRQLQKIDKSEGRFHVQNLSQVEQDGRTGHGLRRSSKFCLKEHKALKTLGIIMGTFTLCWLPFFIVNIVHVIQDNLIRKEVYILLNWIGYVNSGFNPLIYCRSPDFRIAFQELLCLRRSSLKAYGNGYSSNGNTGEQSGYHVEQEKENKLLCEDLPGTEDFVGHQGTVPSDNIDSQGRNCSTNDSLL
Experimental: (§1) Compounds were tested in the reporter system with increasing concentrations of GPR174-interacting compounds. GPR174 construct pCMV6-XL4-GPR174 or ADBR2, reporter of interest, pCRE-Luc or GL4.29 (3000 ng), and TK-renilla as an internal control (10 ng) with lipofectamine 2000 (60 ug) (Invitrogen, CA) according to the manufacturer's directions.
(§2) The DNA/lipofectamine 2000 mix (3000 μL) was incubated at room temperature for 30 minutes and then added into a 10 cm culture dish (Corning, NY) containing 70-90% confluent cultured cells, typically HEK293 or CHO cell lines (ATCC, VA), in 15 mL of media. The cells were further incubated for 4-6 hours at 37° C. and then media were removed and cells were detached with 2 mL trypsin (Life Technologies, CA). Media (26 mL) were added to the detached cells and 120 μL of transfected cells were transferred to each well on a 96-well plate. Increasing concentration of each compound in DMSO (1.2 μl) was added to the cells after plating into the 96-well plate. The cells were further incubated at 37° C. for various times. The media were removed and the cells lysed. Luciferase and renilla activities were measured with the Dual-luciferase assay system (Promega, WI) according to the manufacturer's directions. Typically, lysis buffer (25 μL) was added to the cells and incubated at room temperature for 20-30 minutes to allow for the cells to lyse. The lysate (10 μL) was measured for luciferase and renilla activity with LARII and Stop&Glo reagent (50 μL each) with a SpectraMax L (Molecular Devices, CA). Data were analyzed with either Excel (Microsoft, WA) or Prism 4.03 (GraphPad, CA).
(§3) ADBR2 is a GPCR, like GPR174, that activates the Gs signaling pathway.

GPR174 [1] = target: T2, GPR174 (Homo sapiens, UniProt Q9BXC1); assay: CRE-Luc reporter Gs signaling assay, cells transfected with GPR174; design: host or cells: HEK293 or CHO cell lines (ATCC); settings: for effect on Gs pathway in the presence of GPR174: CRE-Luc reporter; for nature of compound in GPR174 signaling assay: human GPR174 with pCRE-Luc
Experimental: as §1, §2, §3
Target sequence in this assay (Q9BXC1 whole entry): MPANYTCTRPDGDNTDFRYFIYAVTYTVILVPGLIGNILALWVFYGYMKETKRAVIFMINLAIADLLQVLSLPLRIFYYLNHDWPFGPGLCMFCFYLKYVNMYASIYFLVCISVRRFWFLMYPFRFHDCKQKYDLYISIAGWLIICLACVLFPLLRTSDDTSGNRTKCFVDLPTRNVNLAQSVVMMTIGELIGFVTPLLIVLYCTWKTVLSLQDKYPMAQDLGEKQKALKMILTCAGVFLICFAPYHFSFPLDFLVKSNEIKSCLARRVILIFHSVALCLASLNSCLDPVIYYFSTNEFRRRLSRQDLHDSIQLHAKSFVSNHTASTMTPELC

GPR174 [2] = target: T2, GPR174; assay: Cellular Redistribution Assay (CRA) against GPR174; design: fused on or other part: No tag or reporter is given; settings: for EC50: multiple values = separate experiments; for dose-response in CRA against GPR174: FIG. 5A
Text: One method for identifying compounds capable of modulating a receptor is using a cellular redistribution assay (“CRA”). Exemplary CRA methods are found in U.S. Pat. No. 7,309,576 issued to O'Dowd et al. and in O'Dowd et al., J. Biomol. Screen. 12:175-85, 2007. […] Incorporation of the NLS alters the cellular localization of the GPCR, such that the majority of the NLS-modified receptor is present in the cell interior. An NLS-modified GPCR, when interacting with a functionally active compound, is mostly localized on the cell surface. Thus, it becomes possible to identify receptor modulators without knowledge of the endogenous ligand or a surrogate ligand.
The inventors have identified a number of compounds that inhibit GPR174 using a CRA assay similar to that described in U.S. Pat. No. 7,309,576 and in O'Dowd et al., J. Biomol. Screen. 12:175-85, 2007. These compounds are described in detail below.
(§4) The inventors used a CRA similar to that described in U.S. Pat. No. 7,309,576 and O'Dowd et al., J. Biomol. Screen. 12:175-85, 2007 to identify compounds that are capable of interacting with GPR174 using a library of approximately 370,000 chemical entities. Briefly described, the CRA assay described in U.S. Pat. No. 7,309,576 involves artificially inserting a NLS into the dopamine D1 receptor (DRD1), which allows the receptor to traffic from the cell membrane to the cell interior, and that the binding of antagonists to the receptor retained the receptor at the cell surface, while removal of the ligand allowed the receptor to continue to internalize from the cell surface. Both antagonists and agonists that selectively bound the receptor retained the receptor on the plasma membrane. GPR174 constructs were generated for use in a CRA-based compound screening assay. From this screen, the inventors initially identified compounds of formula I-VI, as described herein and included in TABLE 1.
Target sequence in this assay (Q9BXC1 1-290 limits assumed): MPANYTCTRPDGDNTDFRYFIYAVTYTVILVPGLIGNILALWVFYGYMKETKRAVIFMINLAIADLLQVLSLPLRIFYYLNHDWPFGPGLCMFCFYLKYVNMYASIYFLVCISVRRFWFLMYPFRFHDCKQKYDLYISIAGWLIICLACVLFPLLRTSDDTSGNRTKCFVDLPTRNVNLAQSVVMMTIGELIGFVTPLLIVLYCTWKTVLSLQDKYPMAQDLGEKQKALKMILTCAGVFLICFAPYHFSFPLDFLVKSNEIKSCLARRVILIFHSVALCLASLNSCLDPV

CHRM1 = assay: Cellular Redistribution Assay (CRA) against CHRM1; settings: FIG. 5B
Text: as §4
The inventors also sought to validate that the compounds identified using the CRA are modulatory compounds. To this end, the above-described CRA was used to screen a library for compounds that interact with three control non-orphan receptors, and the results of this screen were compared to the results of screening the same library for compound that were identified using a Fluorometric Imaging Plate Reader (FLIPR) assay, a conventional technique commonly used to identify compounds interacting with non-orphan GPCRs signaling through Ca+. Three non-orphan GPCRs—Muscarinic acetylcholine receptor M1 (CHRM1), Adrenergic receptor alpha 1a (ADRA1a), and Neuropeptide S receptor (NPSR)—were screened against a 10,000-compound GPCR-focused library. Thirty interacting compound “hits” were identified using the CRA, and eighty-one hits were identified using the FLIPR for the CHRM1 receptor; 9 CRA hits and 29 FLIPR hits for the NPS receptor were identified; and 110 CRA hits and 110 FLIPR hits for ADRA1a.
In addition, the CRA can also provide the relative potencies of compounds against the target receptor.

human PBMCs = assay: Cytokines in culture supernatants of stimulated human PBMCs (ELISA / LEGENDplex); settings: data not shown
Experimental: The effect of compound #10 on IL-2 and IFN-γ production in human PBMCs was determined as follows. PBMCs from a single donor were adjusted to a density of 2×10^6 cells/mL, stimulated with 100 ng/mL of anti-CD3 and 100 ng/mL of anti-CD28 antibodies and treated with 1 μM, 3 μM, or 10 μM of compound #10. Supernatant from these cells was taken on day 2 post-stimulation and the levels of IL-2 and IFN-γ were determined by ELISA assay using Ready-SET-Go ELISA kits from Affimetrix Ebioscience according to the manufacturer's instructions.
The effect of compound #10 on IL-2 production in human PBMCs was determined as follows. […] Supernatant from these cells was taken on day 3 post-stimulation and the levels of IL-2 were determined by ELISA assay using Ready-SET-Go™ ELISA kits from Affimetrix Ebioscience and LEGENDplex™ bead-based immunoassays from BioLegend according to the manufacturer's instructions.
The effect of compound #10 on IL-2 production in human PBMC from each donor was determined as follows. PBMC from each donor were adjusted to a density of 2×10^6 cells/mL, stimulated with 100 ng/mL of anti-CD3 and 100 ng/mL of anti-CD28 antibodies and treated with 30 μM compound #10. Supernatant from these cells was taken on day 2 post-stimulation and the levels of IL-2 were determined by ELISA assay using LEGENDplex™ bead-based immunoassays from BioLegend (San Diego, CA) according to the manufacturer's instructions.
The effect of compound #10 on the production of a panel of additional cytokines (interleukin 5 (IL-5), interleukin 13 (IL-13), interleukin 6 (IL-6), interleukin 9 (IL-9), interleukin 10 (IL-10), interferon gamma (IFN-γ), tumor necrosis factor alpha (TNF-α), interleukine 17A (IL-17A), interleukin 17F (IL-17F), interleukin 4 (IL-4) and interleukin 22 (IL-22)) in pooled human PBMC obtained from eight donors was determined as follows. PBMC from eight donors were pooled, then adjusted to a density of 2×10^6 cells/mL, stimulated with 100 ng/mL of anti-CD3 and 100 ng/mL of anti-CD28 antibodies and treated with 30 μM compound #10. Supernatant from these cells was taken on day 2 post-stimulation and the levels of IL-5, IL-13, IL-6, IL-9, IL-10, IFN-γ, TNF-α, IL-17A, IL-17F, IL-4 and IL-22 were determined by ELISA using LEGENDplex™ bead-based immunoassays from BioLegend (San Diego, CA) according to the manufacturer's instructions.

| SMILES | effect on Gs pathway in the presence of ADBR2 (ADBR2) | effect on Gs pathway in the presence of GPR174 (GPR174 [1]) | Human GPR174 CRE Activity: nature of compound (GPR174 [1]) | nature of compound in GPR174 signaling assay (GPR174 [1]) | other results |
| --- | --- | --- | --- | --- | --- |
| CCCCOc1ccc(C2C3=C(CCCC3=O)NC3=C2C(=O)c2ccccc23)cc1 (stereo not drawn) [Compound 31] | did not inhibit the Gs pathway | inhibited the Gs pathway |  |  |  |
| O=C(N/N=C/c1cc(Cl)ccc1O)c1ccncc1 [Compound 57] |  |  | Antagonist or allosteric modulator | GPR174 antagonists or allosteric modulators | EC50 (GPR174 [2]): 5.6 µM |
| COc1ccc(C2C3=C(CCCC3=O)NC3=C2C(=O)c2ccccc23)cc1 (stereo not drawn) [Compound 22] | did not inhibit the Gs pathway | inhibited the Gs pathway |  |  | EC50 (GPR174 [2]): 6.7 µM and 5.3 µM |
| CCOC(=O)N1CCN(c2cc(N3CCC(C)CC3)c(F)cc2[N+](=O)[O-])CC1 [Compound 1] | did not inhibit the Gs pathway | inhibited the Gs pathway |  |  | dose-response in CRA against GPR174 (GPR174 [2]): show a dose-response curve against GPR174; activity in CRA against CHRM1 (CHRM1): do not show any activity against CHRM1 |
| Cc1ccc(-c2nnc(Nc3ccccc3)c3ccccc23)cc1S(N)(=O)=O [Compound 19] | did not modulate the Gs pathway | did not modulate the Gs pathway | Antagonist or allosteric modulator | non-modulators |  |
| Cc1cc(Cc2ccc(NC(=O)c3cccs3)c(C)c2)ccc1NC(=O)c1cccs1 [Compound 21] | did not modulate the Gs pathway | did not modulate the Gs pathway | Antagonist or allosteric modulator | non-modulator |  |
| O=C1CCCC2=C1C(c1ccncc1)C1=C(N2)c2ccccc2C1=O (stereo not drawn) [Compound 42] | did not inhibit the Gs pathway | inhibited the Gs pathway |  |  |  |
| O=[N+]([O-])c1cc(F)c(N2CCCCC2)cc1N1CCN(S(=O)(=O)c2ccccc2)CC1 [Compound 11] | did not inhibit the Gs pathway | inhibited the Gs pathway |  |  | EC50 (GPR174 [2]): 1.5 µM |
| O=C(c1ccccc1)N1CCN(c2cc(N3CCCCC3)c(F)cc2[N+](=O)[O-])CC1 [Compound 6] | did not inhibit the Gs pathway | inhibited the Gs pathway |  |  | IL-2 levels in PBMC cultures (human PBMCs): increased IL-2 levels |
| CC1CCN(c2cc(N3CCN(C(=O)c4cccs4)CC3)c([N+](=O)[O-])cc2F)CC1 [Compound 12] |  |  |  |  | EC50 (GPR174 [2]): 0.3 µM |
| Cc1cc(C(=O)N/N=C/c2cc(Br)ccc2O)c(C)o1 [Compound 58] |  |  | Antagonist or allosteric modulator | GPR174 antagonists or allosteric modulators | EC50 (GPR174 [2]): 3.7 µM |
| Cc1ccccc1Nc1nnc(-c2ccc(C)c(S(N)(=O)=O)c2)c2ccccc12 [Compound 20] |  |  | Antgonist or allosteric modulator | non-modulators | dose-response in CRA against GPR174 (GPR174 [2]): show a dose-response curve against GPR174; activity in CRA against CHRM1 (CHRM1): do not show any activity against CHRM1 |
| C=C(C)COc1ccc(NC(=O)Nc2ccccc2)cc1 [Compound 56] |  |  |  | inverse agonist |  |
| CCOc1ccc(C2C3=C(CCCC3=O)NC3=C2C(=O)c2ccccc23)cc1 (stereo not drawn) [Compound 23] | did not inhibit the Gs pathway | inhibited the Gs pathway |  |  |  |
| CCOC(=O)N1CCN(c2cc(N3CCCCC3)c(F)cc2[N+](=O)[O-])CC1 [Compound 7] | did not inhibit the Gs pathway | inhibited the Gs pathway |  |  |  |
| O=C1CCCC2=C1C(c1ccc3c(c1)OCCO3)C1=C(N2)c2ccccc2C1=O (stereo not drawn) [Compound 36] | did not inhibit the Gs pathway | inhibited the Gs pathway |  |  |  |
| CC(=O)c1ccc(N2CCN(C(=O)c3ccc(F)cc3)CC2)c(F)c1 [Compound 3] |  |  | Antagonist or allosteric modulator |  | dose-response in CRA against GPR174 (GPR174 [2]): show a dose-response curve against GPR174; activity in CRA against CHRM1 (CHRM1): do not show any activity against CHRM1 |
| O=C1CCCC2=C1C(c1ccc(OCCO)cc1)C1=C(N2)c2ccccc2C1=O (stereo not drawn) [Compound 33] | did not inhibit the Gs pathway | inhibited the Gs pathway |  |  |  |
